The record followed here is patent publication US20050119310A1, “Use of n-substituted-1,5-dideoxy-1,5-imino-d-glucitol compounds for treating hepatitis virus infections” (priority 2000, published 2005).

The test system of assay [1] is hepatitis B virus in HepG 2.2.15 (2.2.15) cells. The experiment in a line: IC-90 values used for the combostat method (earlier determinations). Format: cell-based. Conditions: HepG2.2.15, T. Block and G. Jacob, unpublished observation. As for the experimental part: The anti-hepatitis B virus effect of (−)-2′-deoxy-3′-thiocytidine-5′-triphosphate (3TC) alone and in combination with N-nonyl-DNJ was determined according to Korba ((1996) Antiviral Research 29(1):49-51), using the “combostat” strategy (Comstat Program, Combostat Corp., Duluth, Minn.). The combostat method involves serially diluting the IC-90 of each compound. The IC-90 of N-nonyl-DNJ has been determined to be between 4 and 10 μg/ml (T. Block and G. Jacob, unpublished observation). The accepted IC-90 for 3TC in HepG 2.2.15 (2.2.15) cells is 300 nM to 500 nM (Doong et al. (1991) Proc. Natl. Acad. Sci. USA 88:8495-8499).

For assay [2], the system named is woodchuck hepatitis virus (WHV). Nature of the assay: Woodchuck model, N-nonyl-DNJ monotherapy, total HBV DNA and immune precipitated HBV DNA (IPDNA). It counts as in vivo. The procedure: Therefore, five groups of four animals each (all groups had both sexes, all but the control had two of each sex) were assigned to 0, 12.5, 25, 50, and 100 mg/kg/day with BID oral dosing. These were lab-reared wild animals. All animals were infected with woodchuck hepatitis virus (WHV) as neonates, and had been tested positive on serological tests for WHV surface antigen. Blood samples were drawn one week prior to dosing (−1 week), immediately before dosing (0 weeks), weekly during dosing (1, 2, 3, and 4 weeks), and after the end of dosing (5, 6, 8, and 10 weeks).
There are two measures of drug efficacy: reduction in total HBV DNA (measured by quantitative PCR), and reduction in HBV DNA from capsids with intact surface glycoproteins, which is the active form of the virus (measured by an ELISA-like immune precipitation assay followed by quantitative PCR).
Before models are fitted to the data, a log transform was applied because: 1) the variation in IPDNA increases with increasing IPDNA values; the log transformation gives values with a nearly constant variation, and 2) it is expected that drug effects will appear as a constant multiplier of the IPDNA level. Because there are zero values of IPDNA, a small value (about ½ of the smallest non-zero value) was added to all values before the log transform.
Two approaches were used to model the changes in slope to week with dose of N-nonyl-DNJ: a linear modeling approach and a nonlinear model. Both approaches assume that the (linear) rate of change of the Log(IPDNA) measure over the dosing period is the “right” measure to reflect the effect of the drug on the virus. Both approaches are fit in stages, and the first stage is common to both approaches. First, a simple straight line regression model is fit using weeks 0-4 to predict log(IPDNA+10) separately for each animal by run combination. In the second stage, the response variable is the slope fitted in the first stage.
For the linear approach, a model is fit with slope to week as the response where run is considered a block, dose has a significant effect (almost all of this effect is due to a slope to dose), and the relevant error for testing the effect of dose is the variation among animals treated alike (after the adjustment for the runs as blocks). This is similar to using the calibration data within each run to first adjust each run's data to a common virus DNA concentration; the difference is that here the data from the woodchucks are used for the run adjustment rather than only the calibration data.
For the nonlinear approach, a four parameter logistic model is fit with the slope to week as the response and the dose as the predictor. Again, run is considered a block, but because no run has all weeks, it is not possible to fully reflect the blocking in the nonlinear approach. […] The average maximum slope observed was 2.71 additional Log(IPDNA μg/mL)/week, or an increase of about 150%/week, the average minimum slope observed with N-nonyl-DNJ is 0.31 fewer Log(IPDNA μg/mL)/week), or about a decrease of about 25%/week. The slopes, the fitted model, the parameter estimates from the model, and the approximate standard errors for these parameters are all shown in FIG. 3. […] Whether in woodchucks or humans, the effective dose of both the N-alkyl-DNJ and nucleoside or nucleotide antiviral agent administered in combination therewith can be administered in two equal daily subdoses (i.e., B.I.D.).

The test system of the next assay is Hepatitis B Virus. The experiment in a line: Hepatitis B virus secretion from chronically HBV secreting HepG2.2.15 cells (preS1 immunoprecipitation / PCR). Conditions: 3 days of incubation, control = 100%. It counts as cell-based. As for the experimental part: The anti-hepatitis B virus activity and effect on cell viability of a number of different N-substituted-1,5-dideoxy-1,5-imino-D-glucitol compounds were assessed using an in vitro assay employing chronically hepatitis B virus secreting HepG2.2.15 cells. The method employed was essentially that described in Block et al. (1994) Proc. Natl. Acad. Sci. USA 91:2235-2239.

[3] abbreviates: woodchuck, weeks 0-4, with N-nonyl-DNJ.

As for `CCCCCCCCCN1C[C@H](O)[C@@H](O)[C@H](O)[C@H]1CO` [Compound 1, N-(n-nonyl)-1,5-dideoxy-1,5-imino-D-glucitol], the IC90 in assay [1] lay within 4 to 10 µg/mL. Besides, in assay [2] (woodchuck, 12.5-100 mg/kg/day BID oral, 4 weeks of dosing), the “effect on total HBV DNA measurements” value was “no effect”. In addition, the “EC50, four parameter logistic model of slope of Log(IPDNA+10) to week versus dose” value in assay [2] (woodchuck, oral BID) was 7.88 mg/kg/BID dose. Further, in assay [2] (woodchuck, weeks 0-4), the “increase of IPDNA at average maximum slope” value is given as “about 150 %/week”. The “average maximum slope observed, additional Log(IPDNA)/week” value in assay [2] (woodchuck, weeks 0-4, upper end of fitted model) is recorded as 2.71 Log(IPDNA μg/mL)/week. For the same compound, in assay [2] (setting [3]), the “average minimum slope observed, fewer Log(IPDNA)/week” value is given as 0.31 Log(IPDNA μg/mL)/week and the “decrease of IPDNA at average minimum slope” value is given as “about 25 %/week”. In assay [2] (woodchucks), the “approximate effective monotherapy dose” value was “about 16 mg/kg/day”.

Consider `CCCCN1C[C@H](O)[C@@H](O)[C@H](O)[C@H]1CO` [NBDNJ, N-(n-butyl-)-1,5-dideoxy-1,5-imino-D-glucitol], for which the “Relative amount of HBV secreted, as a % of control” value in the assay with Hepatitis B Virus (concentration [200]) is on record as 37.0 +/− 13 (n = 15) %; in the assay on Hepatitis B Virus (concentration [1000]), 3.2 +/− 5 (n = 15) %.

Regarding `CCC(CC)CN1C[C@H](O)[C@@H](O)[C@H](O)[C@H]1CO` [Compound 3, N-(2-ethylbutyl)-1,5-dideoxy-1,5-imino-D-glucitol], the “Relative amount of HBV secreted, as a % of control” value in the assay with Hepatitis B Virus (concentration [200]) is recorded as 45.0 +/− 30 (n = 3) %; in the assay on Hepatitis B Virus (concentration [1000]) it was 5.0 +/− 20 (n = 3) %.

For orientation: IC90 means the point of the concentration-response curve where the effect stands at 90%.
